Measurements from patent US20220079915A1, “IMMUNOSUPPRESSIVE PHARMACEUTICAL COMPOSITION AND APPLICATION THEREOF” (Shanghai Archeus Biotech Co., Ltd., priority 2018, published 2022).
Like-named read-outs stand apart in the source and are kept apart here.

Test system: TNF-α
Test: LPS-induced TNF-α secretion in THP-1 cells, ELISA of culture supernatant
Type: cell-based, human
Settings: for TNF-α level, % of the positive control / TNF-α, % of the positive control level: 100 ng/mL LPS; for inhibition at 10 µM: Homo sapiens, THP-1; for TNF-α treatment value, A: relative to control, 5 μM
Description: 1) Recoveried and expanded THP-1 cells in a T75 culture flask. The growth medium was 10 milliliters of 10% fetal bovine serun/RPMI1640 (already containing 2 mM glutamine)/1% double antibiotics in each flask. Observed the cells under an invert microscope, and, when the cells were in the logarithmic growth phase, started the following drug treatment experiments; 2) Cultured 2*10e5/mL THP-1 cells in a 96-well culture plate with 100 microliters of growth medium (10% fetal bovine serum/RPMI640/1% double antibiotics) per well, and added 100 ng/ml PMA to incubate for 24 hour; 3) Eluted the non-adherent cells once with 300 microliters of fresh growth medium of 10% fetal bovine serum/RPMI1640/1% double antibiotics; 4) Added 200 microliters of growth medium of 10% fetal bovine serum/RPMI1640/1% double antibiotics, with/without test compound, to pre-incubate the cells at 37° C. for 2 hours; 5) Then added 100 ng/mL lipopolysaccharide (LPS) and incubated at 37° C. for 4 hours: 6) Collected 50 microliters of cell culture supernatant for the detection of the levels of related cytokines by enzyme-linked immunoassay, or stored it in a refrigerator at minus 80 degrees Celsius for future detection; 1) Prepared 1× elution buffer for enzyme-linked immunoassay. Prepared it with ultrapure water: 10× elution buffer mother solution=9:1 in volume ratio for use; 2) Prepared the antibody cocktail for enzyme-linked immunoassay. Prepared it with the antibody diluent (provided by Ab221825):antibody 1:antibody 2=18:1:1 in volume ratio for use. Antibody 1 was a TNF-α capture antibody and Antibody 2 was a TNF-α detector antibody. They were all supplied by kit Ab221825; 3) Prepared a series of concentration gradient samples of TNF-α standard with ultrapure water for the plotting of reaction standard curve and determining the linear range of detection signal; 4) Added 50 microliters of cell culture supernatant/standard and 50 microliters of the above antibody cocktail to a 96-well plate used for enzymatic reaction, sealed it with a film, placed it on a horizontal shaker, and incubated at 400 rpm for 1 hour at room temperature to allow the antibody-antigen complex was fully bound and coupled at the bottom of the well plate; 5) Discarded the supernatant, eluted with 350 microliters of 1× elution buffer/well for 3 times. In the last elution, put the well plate upside down on an absorbent paper and sucked and washed it thoroughly; 6) Added 100 microliters of TMB substrate solution (supplied by Ab221825) to each well, placed them on a horizontal shaker and incubated in the dark at room temperature for 5 minutes at a speed of 400 rpm; 7) Added 100 microliters of reaction stop solution (provided by Ab221825), placed on a horizontal shaker and mix at 400 rpm for 1 minute; 8) Detected the absorbance at 450 nm with a microplate reader.

Compound: C=C[C@@]1(C)CC(=O)C2(O)[C@@]3(C)C(O)CCC(C)(C)C3[C@H](OC(=O)CCN(C)C)[C@H](OC(C)=O)[C@@]2(C)O1.Cl (some centres unmarked) [6-[3-(dimethylamino)propionyl]forskolin hydrochloride]
- TNF-α level, % of the positive control (5 μM alone, FIG. 4): 33%
- TNF-α, % of the positive control level (5 μM alone, FIG. 6): 58%
- reduction in TNF-α levels (5 μM alone, FIG. 6): 42%
- reduction in TNF-α level (5 μM used alone, FIG. 4): 67%
- TNF-α level, % of the positive control (10 μM alone, FIG. 4): 27%
- TNF-α, % of the positive control level (10 μM alone, FIG. 6): 44%
- reduction in TNF-α level (inhibitory effect) (10 μM used alone, FIG. 4): 73%
- inhibition at 10 µM (10 μM alone, FIG. 6, read-out: reduction in TNF-α levels (inhibitory effect)): 56%
- inhibition at 10 µM (10 μM, 100 ng/ml LPS 4 hours, FIG. 1, read-out: inhibition of the TNF-α level of the positive control): ~75%
- TNF-α treatment value, A (Table 3): 33%
- TNF-α treatment value, A (Table 4): 58%
